Assay results reported in ChEMBL document CHEMBL1144814, “5-Sulfonyl-benzimidazoles as selective CB2 agonists” (Bioorg Med Chem Lett, 2008).
pEC50: −log10 of the molar value.

How the values were obtained:
[1] = Ratio of EC50 for CB2 receptor to EC50 for CB1 receptor (unknow origin)
Cannabinoid receptor 2 = Cannabinoid receptor 2 (Homo sapiens, UniProt P34972); experiment: Agonist activity at human CB2 receptor; assay type: functional
[2] = Metabolism in human liver microsomes after 15 mins
[3] = target: T1, Cannabinoid receptor 2 (Rattus norvegicus) (UniProt Q9QZN9); experiment: Agonist activity at rat CB2 receptor; assay type: functional
T1 sequence (whole entry): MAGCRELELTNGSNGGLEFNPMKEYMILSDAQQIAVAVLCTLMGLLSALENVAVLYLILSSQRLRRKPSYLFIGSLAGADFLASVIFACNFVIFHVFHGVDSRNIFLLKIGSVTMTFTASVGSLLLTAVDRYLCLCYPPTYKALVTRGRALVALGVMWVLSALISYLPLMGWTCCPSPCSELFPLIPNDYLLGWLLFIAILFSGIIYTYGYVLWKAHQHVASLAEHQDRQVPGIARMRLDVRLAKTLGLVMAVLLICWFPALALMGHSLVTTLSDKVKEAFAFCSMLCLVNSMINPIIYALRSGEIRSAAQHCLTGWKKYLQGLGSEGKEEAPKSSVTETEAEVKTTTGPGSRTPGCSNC

Cytochrome P450 1A2 = target: T2, Cytochrome P450 1A2 (Homo sapiens, UniProt P05177); experiment: Inhibition of CYP1A2; assay type: ADME
T2 sequence (P05177 whole entry): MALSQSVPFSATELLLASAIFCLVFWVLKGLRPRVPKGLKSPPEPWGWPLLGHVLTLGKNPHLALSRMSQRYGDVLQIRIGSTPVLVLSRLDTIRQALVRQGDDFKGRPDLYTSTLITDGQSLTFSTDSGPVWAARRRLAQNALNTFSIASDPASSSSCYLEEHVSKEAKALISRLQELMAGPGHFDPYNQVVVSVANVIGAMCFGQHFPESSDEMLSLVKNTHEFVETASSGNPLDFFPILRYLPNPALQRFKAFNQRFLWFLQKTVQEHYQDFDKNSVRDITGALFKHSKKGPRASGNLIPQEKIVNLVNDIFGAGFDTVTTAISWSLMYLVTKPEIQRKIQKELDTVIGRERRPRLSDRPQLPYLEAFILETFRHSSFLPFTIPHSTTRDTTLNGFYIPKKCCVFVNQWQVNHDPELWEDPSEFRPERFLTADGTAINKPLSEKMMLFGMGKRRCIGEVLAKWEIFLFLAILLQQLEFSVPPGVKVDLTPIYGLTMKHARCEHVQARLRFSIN

[4] = Solubility at pH 7.4; assay type: physicochemical; conditions: buffer
Cytochrome P450 2C9 = Cytochrome P450 2C9 (Homo sapiens, UniProt P11712); experiment: Inhibition of CYP2C9; assay type: ADME
Cytochrome P450 2D6 = Cytochrome P450 2D6 (Homo sapiens, UniProt P10635); experiment: Inhibition of CYP2D6; assay type: ADME
Cytochrome P450 3A4 = Cytochrome P450 3A4 (Homo sapiens, UniProt P08684); experiment: Inhibition of CYP3A4; assay type: ADME
[5] = Solubility at pH 4; assay type: physicochemical; conditions: buffer
Cytochrome P450 2C19 = Cytochrome P450 2C19 (Homo sapiens, UniProt P33261); experiment: Inhibition of CYP2C19; assay type: ADME
CYP2C9 = CYP2C9 (Homo sapiens, UniProt P11712); experiment: Inhibition of CYP2C9 at 10 uM; assay type: ADME
CYP2C19 = CYP2C19 (Homo sapiens, UniProt P33261); experiment: Inhibition of CYP2C19 at 10 uM; assay type: ADME
[6] = Ratio of drug level in brain to plasma in Sprague-Dawley rat at 10 mg/kg, po; assay type: ADME, organism-based; design: dose 10 mg/kg, route oral; conditions: read-out: BPR
[7] = Tmax in Sprague-Dawley rat at 10 mg/kg, po; assay type: ADME, organism-based; design: dose 10 mg/kg, route oral; conditions: in vivo
[8] = Fraction of dose absorbed in Sprague-Dawley rat at 10 mg/kg, po; assay type: ADME, organism-based; design: dose 10 mg/kg, route oral; conditions: in vivo, read-out: Fabs
[9] = Half life in Sprague-Dawley rat at 10 mg/kg, po; assay type: ADME, organism-based; design: dose 10 mg/kg, route oral; conditions: in vivo
[10] = Cmax in Sprague-Dawley rat at 10 mg/kg, po; assay type: ADME, organism-based; design: dose 10 mg/kg, route oral; conditions: in vivo
[11] = Oral bioavailability in Sprague-Dawley rat at 10 mg/kg; assay type: ADME, organism-based; conditions: in vivo
Rattus norvegicus = experiment: Induction of CB1-mediated side effects in Sprague-Dawley rat at 40 mg/kg, po by tetrad test; assay type: organism-based; design: dose 40 mg/kg, route oral; conditions: in vivo
[12] = AUC (0 to infinity) in Sprague-Dawley rat at 10 mg/kg, po; assay type: ADME, organism-based; design: time infinity, dose 10 mg/kg, route oral; conditions: plasma

Sequence of Cannabinoid receptor 2 (P34972 whole entry): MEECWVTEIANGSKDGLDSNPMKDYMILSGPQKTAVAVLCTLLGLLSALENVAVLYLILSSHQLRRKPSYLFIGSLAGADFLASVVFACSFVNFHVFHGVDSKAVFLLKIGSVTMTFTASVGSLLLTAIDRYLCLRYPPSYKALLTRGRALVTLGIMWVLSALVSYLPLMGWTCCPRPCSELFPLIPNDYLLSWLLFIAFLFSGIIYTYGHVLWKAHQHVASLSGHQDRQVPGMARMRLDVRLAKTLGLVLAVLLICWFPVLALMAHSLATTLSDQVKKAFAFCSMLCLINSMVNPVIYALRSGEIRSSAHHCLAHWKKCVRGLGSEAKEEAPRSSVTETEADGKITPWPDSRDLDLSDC
Sequence of Cytochrome P450 3A4 (P08684 whole entry): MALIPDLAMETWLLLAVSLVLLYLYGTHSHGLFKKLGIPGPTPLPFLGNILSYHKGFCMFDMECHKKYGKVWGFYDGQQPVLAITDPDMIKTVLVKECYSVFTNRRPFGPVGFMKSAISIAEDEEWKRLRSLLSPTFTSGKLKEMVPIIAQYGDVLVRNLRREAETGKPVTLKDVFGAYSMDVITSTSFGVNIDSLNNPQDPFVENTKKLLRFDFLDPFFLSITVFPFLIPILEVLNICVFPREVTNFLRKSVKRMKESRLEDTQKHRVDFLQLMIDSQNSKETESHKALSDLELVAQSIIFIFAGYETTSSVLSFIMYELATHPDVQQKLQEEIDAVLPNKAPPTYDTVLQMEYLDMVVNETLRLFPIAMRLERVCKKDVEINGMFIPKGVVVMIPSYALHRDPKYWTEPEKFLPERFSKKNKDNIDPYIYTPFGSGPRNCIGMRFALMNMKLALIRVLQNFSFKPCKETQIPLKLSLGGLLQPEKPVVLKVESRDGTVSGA
Sequence of Cytochrome P450 2C9 (P11712 whole entry): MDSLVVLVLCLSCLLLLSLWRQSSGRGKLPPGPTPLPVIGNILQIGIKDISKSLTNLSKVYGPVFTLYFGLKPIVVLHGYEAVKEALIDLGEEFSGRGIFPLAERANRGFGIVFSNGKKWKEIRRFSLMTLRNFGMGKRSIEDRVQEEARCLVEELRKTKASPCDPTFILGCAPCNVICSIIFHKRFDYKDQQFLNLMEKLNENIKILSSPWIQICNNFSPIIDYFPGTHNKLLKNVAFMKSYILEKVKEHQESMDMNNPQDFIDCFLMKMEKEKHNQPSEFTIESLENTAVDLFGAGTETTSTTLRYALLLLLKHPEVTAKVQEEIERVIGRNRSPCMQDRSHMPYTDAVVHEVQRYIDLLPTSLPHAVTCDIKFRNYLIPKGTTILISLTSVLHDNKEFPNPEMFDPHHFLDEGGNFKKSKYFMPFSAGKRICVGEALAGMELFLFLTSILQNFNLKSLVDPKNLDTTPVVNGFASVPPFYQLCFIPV
Sequence of CYP2C9 (P11712 whole entry): as above
Sequence of Cytochrome P450 2D6 (P10635 whole entry): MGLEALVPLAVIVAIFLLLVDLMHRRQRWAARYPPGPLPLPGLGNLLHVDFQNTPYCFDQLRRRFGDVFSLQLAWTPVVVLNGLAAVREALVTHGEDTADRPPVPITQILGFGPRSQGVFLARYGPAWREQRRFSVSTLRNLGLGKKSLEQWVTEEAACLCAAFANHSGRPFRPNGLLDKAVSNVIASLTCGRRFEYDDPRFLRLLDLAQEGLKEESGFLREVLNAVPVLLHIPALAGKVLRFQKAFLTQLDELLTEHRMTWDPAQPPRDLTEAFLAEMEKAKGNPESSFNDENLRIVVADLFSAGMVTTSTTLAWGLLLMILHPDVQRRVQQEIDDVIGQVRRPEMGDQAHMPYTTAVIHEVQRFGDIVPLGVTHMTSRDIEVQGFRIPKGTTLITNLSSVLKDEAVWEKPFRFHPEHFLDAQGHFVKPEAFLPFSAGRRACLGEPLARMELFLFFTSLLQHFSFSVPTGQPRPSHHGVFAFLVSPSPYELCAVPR
Sequence of CYP2C19 (P33261 whole entry): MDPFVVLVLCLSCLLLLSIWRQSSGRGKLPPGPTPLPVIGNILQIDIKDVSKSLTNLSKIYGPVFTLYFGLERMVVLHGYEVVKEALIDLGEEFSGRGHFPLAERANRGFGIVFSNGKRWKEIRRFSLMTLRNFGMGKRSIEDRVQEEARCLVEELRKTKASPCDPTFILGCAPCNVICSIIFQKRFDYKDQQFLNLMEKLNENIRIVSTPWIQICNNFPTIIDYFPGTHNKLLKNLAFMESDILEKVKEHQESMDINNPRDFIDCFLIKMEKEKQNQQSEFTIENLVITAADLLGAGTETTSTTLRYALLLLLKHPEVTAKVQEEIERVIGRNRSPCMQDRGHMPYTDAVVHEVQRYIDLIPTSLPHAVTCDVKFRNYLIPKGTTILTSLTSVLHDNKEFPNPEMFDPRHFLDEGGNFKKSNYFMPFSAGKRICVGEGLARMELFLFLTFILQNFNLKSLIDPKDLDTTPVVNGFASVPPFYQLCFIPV
Sequence of Cytochrome P450 2C19 (P33261 whole entry): as above

Row | Structure (SMILES) | Ratio EC50 [1] | pEC50 (Cannabinoid receptor 2) | metabolized at 0.25 h [2] [%] | also measured
1 | CC(C)(C)c1nc2cc(S(=O)(=O)c3nccs3)ccc2n1CC1CCOCC1 | 4 | 9.10 | 25 | –
2 | CCOc1ccc(Cc2nc3cc(S(=O)(=O)CC)c(Cl)cc3n2CC2CCCCC2)cc1 | 50 | 8.30 | 74 | –
3 | CCS(=O)(=O)c1ccc2c(c1)nc(C)n2CC1CCCCC1 | – | 7.51 | – | –
4 | CCS(=O)(=O)c1ccc2c(c1)nc(C(C)(C)C)n2CC1CCOCC1 | 551 | 8.92 | 0 | Efficacy (Cannabinoid receptor 2): 120%; Efficacy [3]: 102%
5 | CCS(=O)(=O)c1ccc2c(c1)nc(C(C)(C)C)n2CC1CCCCC1 | – | 9.10 | – | Efficacy (Cannabinoid receptor 2): 104%
6 | [O-][S+](Cc1ccc(Cl)cc1)c1cc2nc(C3CCCCC3)[nH]c2cc1Cl (configuration not stated) | > 1000 | > 9.00 | < 50 | Inhibition (Cytochrome P450 1A2): < 50%; Efficacy (Cannabinoid receptor 2): > 100%; solubility [4]: > 20 µM; Inhibition (Cytochrome P450 2C9): < 50%; Inhibition (Cytochrome P450 2D6): < 50%; Inhibition (Cytochrome P450 3A4): < 50%; solubility [5]: > 20 µM; Inhibition (Cytochrome P450 2C19): < 50%
7 | CC(C)(C)c1nc2cc(S(=O)(=O)CC3CC3)ccc2n1CC1CCOCC1 | 121 | 8.89 | 14 | –
8 | CC(C)(C)c1nc2cc(S(=O)(=O)c3ccc(C#N)cc3)ccc2n1CC1CCOCC1 | 191 | 9.22 | 42 | –
9 | CCNCCCS(=O)(=O)c1ccc2c(c1)nc(C(C)(C)C)n2CC1CCOCC1 | 4.3 | 6.80 | – | –
10 | CCOc1ccc(Cc2nc3cc(S(=O)(=O)CC)c(Cl)cc3n2CC2CCOCC2)cc1 | 537 | 7.70 | 66 | –
11 | CC(C)(C)c1nc2cc(S(=O)(=O)c3c(Cl)cccc3Cl)ccc2n1CC1CCOCC1 | 292 | 9.40 | 96 | –
12 | CC(C)(C)c1nc2cc(S(=O)(=O)Cc3ccc(C#N)cc3)ccc2n1CC1CCCCC1 | 436 | 9.30 | 73 | –
13 | CC(C)(C)c1nc2cc(S(=O)(=O)CCO)ccc2n1CC1CCOCC1 | 3850 | 8.60 | 6 | –
14 | CC(C)(C)c1nc2cc(S(=O)(=O)c3ccccc3)ccc2n1CC1CCCCC1 | 14 | 8.92 | 23 | –
15 | CCOc1ccc(Cc2nc3cc(SCC)c(Cl)cc3n2CC2CCOCC2)cc1 | 75 | 8.40 | 98 | –
16 | CCOc1ccc(Cc2nc3cc(Cl)c([S+]([O-])CC)cc3[nH]2)cc1 (configuration not stated) | – | < 5.00 | – | –
17 | CCOc1ccc(Cc2nc3cc(SCC)c(Cl)cc3n2CC2CCCCC2)cc1 | 1.2 | 6.90 | 85 | –
18 | CCS(=O)(=O)c1ccc2c(c1)nc(CC(C)C)n2CC1CCOCC1 | – | 8.40 | – | Efficacy (Cannabinoid receptor 2): 101%; Efficacy [3]: 43%
19 | CC(C)(C)c1nc2cc(S(=O)(=O)C(F)(F)c3ccc(C#N)cc3)ccc2n1CC1CCCCC1 | 62 | 8.80 | 28 | –

Row | Structure (SMILES) | Ratio EC50 [1] | pEC50 (Cannabinoid receptor 2) | metabolized at 0.25 h [2] [%] | also measured
20 | CC(=O)N(C)Cc1ccc(S(=O)(=O)c2ccc3c(c2)nc(C(C)(C)C)n3CC2CCOCC2)cc1 | 550 | 8.80 | 50 | –
21 | CC(C)(C)c1nc2cc(S(=O)(=O)c3ccnc(F)c3)ccc2n1CC1CCOCC1 | 495 | 9.10 | 40 | –
22 | CCOc1cc(S(=O)(=O)c2ccc3c(c2)nc(C(C)(C)C)n3CC2CCOCC2)ccn1 | 4270 | 9.52 | 48 | inhibition at 10 µM (CYP2C9): 94%; inhibition at 10 µM (CYP2C19): 76%; Kp [6]: 0.1; Tmax [7]: 0.5 h; Fa [8]: ≤ 1%; half-life [9]: 3.4 h; Cmax [10]: 731 ng/mL; bioavailability [11]: 43%; Activity (Rattus norvegicus): Non-toxic; AUC(0-inf) [12]: 2500 ng·h/mL
23 | CC(C)(C)c1nc2cc(S(=O)(=O)CCCC(F)(F)F)ccc2n1CC1CCOCC1 | 285 | 9.00 | 36 | –
24 | CC(C)(C)c1nc2cc(S(=O)(=O)c3ccncc3)ccc2n1CC1CCOCC1 | 215 | 8.92 | 28 | –
25 | CCS(=O)(=O)c1ccc2c(c1)nc(C(C)C)n2CC1CCCCC1 | – | 8.80 | – | Efficacy (Cannabinoid receptor 2): 101%; Efficacy [3]: 99%
26 | Cc1cc(S(=O)(=O)c2ccc3c(c2)nc(C(C)(C)C)n3CC2CCOCC2)ccn1 | 1620 | 8.89 | 40 | –
27 | CC(C)(C)c1nc2cc(S(=O)(=O)c3cccc(C#N)c3)ccc2n1CC1CCOCC1 | 1460 | 9.30 | 61 | –
28 | CCOc1ccc(Cc2nc3cc([S+]([O-])CC)c(Cl)cc3n2CC2CCOCC2)cc1 (configuration not stated) | 484 | 7.70 | 95 | –
29 | CCS(=O)(=O)c1ccc2c(c1)nc(C1CC1)n2CC1CCOCC1 | – | 8.40 | – | Efficacy (Cannabinoid receptor 2): 109%; Efficacy [3]: 0%
30 | CC(=O)NCCCS(=O)(=O)c1ccc2c(c1)nc(C(C)(C)C)n2CC1CCOCC1 | 109 | 7.00 | – | –
31 | CCOc1ccc(Cc2nc3cc(SCC)c(Cl)cc3[nH]2)cc1 | – | 5.70 | – | –
32 | CCOc1ccc(Cc2nc3cc([S+]([O-])CC)c(Cl)cc3n2CC2CCCCC2)cc1 (configuration not stated) | 8.2 | 8.20 | – | –
33 | CC(C)(C)c1nc2cc(S(=O)(=O)c3ccco3)ccc2n1CC1CCOCC1 | 40 | 9.40 | – | –
34 | CCOc1ccc(Cc2nc3cc(S(=O)(=O)CC)ccc3n2CC2CCOCC2)cc1 | 1600 | 8.40 | 34 | Efficacy (Cannabinoid receptor 2): 44%
35 | CC(C)(C)c1nc2cc(S(=O)(=O)CCN)ccc2n1CC1CCOCC1 | 912 | 8.00 | – | –
36 | CC(C)(C)c1nc2cc(S(=O)(=O)c3ccc(CN)cc3)ccc2n1CC1CCOCC1 | 363 | 8.30 | – | –
37 | CC(C)(C)c1nc2cc(S(=O)(=O)CCC#N)ccc2n1CC1CCOCC1 | 2110 | 8.40 | 24 | –
38 | CC(C)(C)c1nc2cc(S(=O)(=O)CCC(F)(F)F)ccc2n1CC1CCOCC1 | 394 | 8.89 | 13 | –
